Measurements from patent US11180462B2, “Microbiocidal oxadiazole derivatives” (SYNGENTA PARTICIPATIONS AG, priority 2015, dated 2021).

Key:
[1] = tested on: Puccinia recondita f. Sp. Tritici; experiment: Fungicidal activity against Puccinia recondita f. sp. tritici / wheat / leaf disc curative (brown rust); format: in vivo; details: foliar, 24 h, 200 ppm in the applied formulation, wheat leaf segments, curative (applied 1 day after inoculation), compared to untreated control leaf disks, read-out: disease control
Procedure, shortened: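 Segments of wheat cv. Kanzler were laid on agar and inoculated with a spore suspension of the rust, then held in darkness at 19° C and 75% relative humidity. One day later the water-diluted formulated compound was applied, with incubation continued under a 12 h light/dark cycle.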

[2] = tested on: Glomerella lagenarium (Colletotrichum lagenarium); experiment: Fungicidal activity against Glomerella lagenarium (Colletotrichum lagenarium) liquid culture / cucumber / preventative (anthracnose); format: cell-based; details: Colletotrichum orbiculare; 20 ppm in the applied formulation; liquid culture (PDB), growth inhibition measured photometrically after 3 to 4 days; compared to untreated control; read-out: disease control
Procedure, shortened: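 Photometric read-out of fungal growth after 2–7 days, expressed as percent antifungal activity versus untreated check. Cryo-stored conidia in PDB; compound at 20 ppm; dark, 24 °C, 96% RH.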

[3] = tested on: Puccinia recondita f. Sp. Tritici; experiment: Fungicidal activity against Puccinia recondita f. sp. tritici / wheat / leaf disc preventative (brown rust); format: in vivo; details: foliar, 200 ppm in the applied formulation, wheat leaf segments, preventative, compared to untreated control leaf disks, read-out: disease control
Procedure, shortened: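 Compound application precedes infection: segments of wheat cv. Kanzler, sprayed at 200 ppm, are inoculated with a spore suspension after 1 day. Incubation is at 19° C. with 75% relative humidity and 12 h light/12 h darkness, and control versus untreated leaves is rated 7 to 9 days post-application.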

COCC(=O)N(Cc1ccc(-c2noc(C(F)(F)F)n2)cc1)CC1CCCO1 (stereo not drawn) [Compound 1.415, 2-methoxy-N-(tetrahydrofuran-2-ylmethyl)-N-[[4-[5-(trifluoromethyl)-1,2,4-oxadiazol-3-yl]phenyl]methyl]-acetamide]
≥ 80%: pest or weed control at 200 ppm [1] | inhibition of growth at 20 ppm [2] | pest or weed control at 200 ppm [3]

CC=C(C)C(=O)N(Cc1ccc(-c2noc(C(F)(F)F)n2)cc1)CC1CCCO1 (stereo not drawn) [Compound 1.417, 2-methyl-N-(tetrahydrofuran-2-ylmethyl)-N-[[4-[5-(trifluoromethyl)-1,2,4-oxadiazol-3-yl]phenyl]methyl]but-2-enamide]
≥ 80%: pest or weed control at 200 ppm [1] | inhibition of growth at 20 ppm [2] | pest or weed control at 200 ppm [3]

O=C(C1CSC1)N(Cc1ccc(-c2noc(C(F)(F)F)n2)cc1)CC1CCCO1 (stereo not drawn) [Compound 1.421, N-(tetrahydrofuran-2-ylmethyl)-N-[[4-[5-(trifluoromethyl)-1,2,4-oxadiazol-3-yl]phenyl]methyl]-thietane-3-carboxamide]
≥ 80%: pest or weed control at 200 ppm [1] | inhibition of growth at 20 ppm [2] | pest or weed control at 200 ppm [3]

COCCC(=O)N(Cc1ccc(-c2noc(C(F)(F)F)n2)cc1)CC1CCCO1 (stereo not drawn) [Compound 1.422, 3-methoxy-N-(tetrahydrofuran-2-ylmethyl)-N-[[4-[5-(trifluoromethyl)-1,2,4-oxadiazol-3-yl]phenyl]methyl]-propanamide]
≥ 80%: pest or weed control at 200 ppm [1] | inhibition of growth at 20 ppm [2] | pest or weed control at 200 ppm [3]

CCOCC(=O)N(Cc1ccc(-c2noc(C(F)(F)F)n2)cc1)CC1CCCO1 (stereo not drawn) [Compound 1.426, 2-ethoxy-N-(tetrahydrofuran-2-ylmethyl)-N-[[4-[5-(trifluoromethyl)-1,2,4-oxadiazol-3-yl]phenyl]methyl]-acetamide]
≥ 80%: pest or weed control at 200 ppm [1] | inhibition of growth at 20 ppm [2] | pest or weed control at 200 ppm [3]

COCCOCC(=O)N(Cc1ccc(-c2noc(C(F)(F)F)n2)cc1)CC1CCCO1 (stereo not drawn) [Compound 1.427, 2-(2-methoxyethoxy)-N-(tetrahydrofuran-2-ylmethyl)-N-[[4-[5-(trifluoromethyl)-1,2,4-oxadiazol-3-yl]phenyl]methyl]-acetamide]
≥ 80%: pest or weed control at 200 ppm [1] | inhibition of growth at 20 ppm [2] | pest or weed control at 200 ppm [3]

CC1(C(=O)N(Cc2ccc(-c3noc(C(F)(F)F)n3)cc2)CC2CCCO2)CC1 (stereo not drawn) [Compound 1.431, 1-methyl-N-(tetrahydrofuran-2-ylmethyl)-N-[[4-[5-(trifluoromethyl)-1,2,4-oxadiazol-3-yl]phenyl]methyl]-cyclopropane-carboxamide]
≥ 80%: pest or weed control at 200 ppm [1] | inhibition of growth at 20 ppm [2] | pest or weed control at 200 ppm [3]

C=C(C)C(=O)N(Cc1ccc(-c2noc(C(F)(F)F)n2)cc1)CC1CCCO1 (stereo not drawn) [Compound 1.433, 2-methyl-N-(tetrahydrofuran-2-ylmethyl)-N-[[4-[5-(trifluoromethyl)-1,2,4-oxadiazol-3-yl]phenyl]methyl]-prop-2-enamide]
≥ 80%: pest or weed control at 200 ppm [1] | inhibition of growth at 20 ppm [2] | pest or weed control at 200 ppm [3]

C#CC(=O)N(Cc1ccc(-c2noc(C(F)(F)F)n2)cc1)CC1CCCO1 (stereo not drawn) [Compound 1.434, N-(tetrahydrofuran-2-ylmethyl)-N-[[4-[5-(trifluoromethyl)-1,2,4-oxadiazol-3-yl]phenyl]methyl] prop-2-ynamide]
≥ 80%: pest or weed control at 200 ppm [1] | inhibition of growth at 20 ppm [2] | pest or weed control at 200 ppm [3]

CC(=O)OCC(=O)N(Cc1ccc(-c2noc(C(F)(F)F)n2)cc1)CC1CCCO1 (stereo not drawn) [Compound 1.435, [2-oxo-2-[tetrahydrofuran-2-ylmethyl-[[4-[5-(trifluoromethyl)-1,2,4-oxadiazol-3-yl]phenyl]methyl]-amino]ethyl] acetate]
≥ 80%: pest or weed control at 200 ppm [1] | inhibition of growth at 20 ppm [2] | pest or weed control at 200 ppm [3]

CC1(C(=O)N(Cc2ccc(-c3noc(C(F)(F)F)n3)cc2)CC2CCCO2)COC1 (stereo not drawn) [Compound 1.438, 3-methyl-N-(tetrahydrofuran-2-ylmethyl)-N-[[4-[5-(trifluoromethyl)-1,2,4-oxadiazol-3-yl]phenyl)methyl]-oxetane-3-carboxamide]
≥ 80%: pest or weed control at 200 ppm [1] | inhibition of growth at 20 ppm [2] | pest or weed control at 200 ppm [3]

O=C(C1CCCO1)N(Cc1ccc(-c2noc(C(F)(F)F)n2)cc1)CC1CCCO1 (stereo not drawn) [Compound 1.442, N-(tetrahydrofuran-2-ylmethyl)-N-[[4-[5-(trifluoromethyl)-1,2,4-oxadiazol-3-yl]phenyl]methyl]-tetrahydrofuran-2-carboxamide]
≥ 80%: pest or weed control at 200 ppm [1] | inhibition of growth at 20 ppm [2] | pest or weed control at 200 ppm [3]

N#CC1(C(=O)N(Cc2ccc(-c3noc(C(F)(F)F)n3)cc2)CC2CCCO2)CC1 (stereo not drawn) [Compound 1.443, 1-cyano-N-(tetrahydrofuran-2-ylmethyl)-N-[[4-[5-(trifluoromethyl)-1,2,4-oxadiazol-3-yl]phenyl]methyl]-cyclopropane-carboxamide]
≥ 80%: pest or weed control at 200 ppm [1] | inhibition of growth at 20 ppm [2] | pest or weed control at 200 ppm [3]

COC(C)C(=O)N(Cc1ccc(-c2noc(C(F)(F)F)n2)cc1)CC1CCCO1 (stereo not drawn) [Compound 1.446, 2-methoxy-N-(tetrahydrofuran-2-ylmethyl)-N-[[4-[5-(trifluoromethyl)-1,2,4-oxadiazol-3-yl]phenyl]methyl]-propanamide]
≥ 80%: pest or weed control at 200 ppm [1] | inhibition of growth at 20 ppm [2] | pest or weed control at 200 ppm [3]

O=C(C1OCCO1)N(Cc1ccc(-c2noc(C(F)(F)F)n2)cc1)CC1CCCO1 (stereo not drawn) [Compound 1.447, N-(tetrahydrofuran-2-ylmethyl)-N-[[4-[5-(trifluoromethyl)-1,2,4-oxadiazol-3-yl]phenyl]methyl]-1,3-dioxolane-2-carboxamide]
≥ 80%: pest or weed control at 200 ppm [1] | inhibition of growth at 20 ppm [2] | pest or weed control at 200 ppm [3]

O=C(CC(F)(F)F)N(Cc1ccc(-c2noc(C(F)(F)F)n2)cc1)CC1CCCO1 (stereo not drawn) [Compound 1.448, 3,3,3-trifluoro-N-(tetrahydrofuran-2-ylmethyl)-N-[[4-[5-(trifluoromethyl)-1,2,4-oxadiazol-3-yl]phenyl]methyl]-propanamide]
≥ 80%: pest or weed control at 200 ppm [1] | inhibition of growth at 20 ppm [2] | pest or weed control at 200 ppm [3]

O=C(C1CC1)N(Cc1ccc(-c2noc(C(F)(F)F)n2)cc1)CC1CCCO1 (stereo not drawn) [Compound 1.450, N-(tetrahydrofuran-2-ylmethyl)-N-[[4-[5-(trifluoromethyl)-1,2,4-oxadiazol-3-yl]phenyl]methyl]-cyclopropane-carboxamide]
≥ 80%: pest or weed control at 200 ppm [1] | inhibition of growth at 20 ppm [2] | pest or weed control at 200 ppm [3]

CC(=O)N(Cc1ccc(-c2noc(C(F)(F)F)n2)cc1)CC1CCCO1 (stereo not drawn) [Compound 1.451, N-(tetrahydrofuran-2-ylmethyl)-N-[[4-[5-(trifluoromethyl)-1,2,4-oxadiazol-3-yl]phenyl]methyl]-acetate]
≥ 80%: pest or weed control at 200 ppm [1] | inhibition of growth at 20 ppm [2] | pest or weed control at 200 ppm [3]

COCCCC(=O)N(Cc1ccc(-c2noc(C(F)(F)F)n2)cc1)CC1CCCO1 (stereo not drawn) [Compound 1.452, 4-methoxy-N-(tetrahydrofuran-2-ylmethyl)-N-[[4-[5-(trifluoromethyl)-1,2,4-oxadiazol-3-yl]phenyl]methyl]-butanamide]
≥ 80%: pest or weed control at 200 ppm [1] | inhibition of growth at 20 ppm [2] | pest or weed control at 200 ppm [3]

COCCC(=O)N(Cc1ccc(-c2noc(C(F)(F)F)n2)cc1)Cc1ccco1 [Compound 1.456, N-(2-furylmethyl)-3-methoxy-N-[[4-[5-(trifluoromethyl)-1,2,4-oxadiazol-3-yl]phenyl]methyl]-propanamide]
≥ 80%: pest or weed control at 200 ppm [1] | inhibition of growth at 20 ppm [2] | pest or weed control at 200 ppm [3]

O=C(C1CCC1)N(Cc1ccc(-c2noc(C(F)(F)F)n2)cc1)Cc1ccco1 [Compound 1.458, N-(2-furylmethyl)-N-[[4-[5-(trifluoromethyl)-1,2,4-oxadiazol-3-yl]phenyl]methyl]-cyclobutane-carboxamide]
≥ 80%: pest or weed control at 200 ppm [1] | inhibition of growth at 20 ppm [2] | pest or weed control at 200 ppm [3]

COCC(=O)N(Cc1ccc(-c2noc(C(F)(F)F)n2)cc1)Cc1ccco1 [Compound 1.459, N-(2-furylmethyl)-2-methoxy-N-[[4-[5-(trifluoromethyl)-1,2,4-oxadiazol-3-yl]phenyl]methyl]-acetamide]
≥ 80%: pest or weed control at 200 ppm [1] | inhibition of growth at 20 ppm [2] | pest or weed control at 200 ppm [3]

CC1CC1C(=O)N(Cc1ccc(-c2noc(C(F)(F)F)n2)cc1)Cc1ccco1 (stereo not drawn) [Compound 1.460, N-(2-furylmethyl)-2-methyl-N-[[4-[5-(trifluoromethyl)-1,2,4-oxadiazol-3-yl]phenyl]methyl]-cyclopropane-carboxamide]
≥ 80%: pest or weed control at 200 ppm [1] | inhibition of growth at 20 ppm [2] | pest or weed control at 200 ppm [3]

CC(C)C(=O)N(Cc1ccc(-c2noc(C(F)(F)F)n2)cc1)Cc1ccco1 [Compound 1.463, N-(2-furylmethyl)-2-methyl-N-[[4-[5-(trifluoromethyl)-1,2,4-oxadiazol-3-yl]phenyl]methyl]-propanamide]
≥ 80%: pest or weed control at 200 ppm [1] | inhibition of growth at 20 ppm [2] | pest or weed control at 200 ppm [3]
